Measured values as given in patent publication US20120253036A1, “AGENT FOR TREATING FIBROMYALGIA” (priority 2009, published 2012).

Experiments:
[1] = system: disease animal model of fibromyalgia; assay: Antagonism by 5-HT2C receptor antagonist SB242084 of the action of lorcaserin on reserpine-lowered muscle tenderness threshold; assay type: in vivo, Sprague-Dawley rats
Procedure: Thirty male Sprague-Dawley rats (Japan SLC) were used. […] The other 6 rats were not administered with reserpine and provided for the experiment as a healthy control. The drug efficacy was evaluated 5 days after the final administration of reserpine.
Twenty four reserpine-administered rats were divided into four groups (n=6/group), and the drug was administered to the respective groups in the following manner.
Group 1: 10% β cyclodextrin (vehicle of SB242084)+distilled water (vehicle of lorcaserin)
Group 2: 10% β cyclodextrin+lorcaserin at 3 mg/kg
Group 3: SB242084 at 0.1 mg/kg+lorcaserin at 3 mg/kg
Group 4: SB242084 at 1 mg/kg+lorcaserin at 3 mg/kg SB242084 or the vehicle thereof was administered by intraperitoneal administration, and lorcaserin or the vehicle thereof was orally administered. […] The muscle tenderness threshold was measured 60 minutes after lorcaserin or the vehicle thereof was administered. For the 6 healthy rats, only the muscle tenderness threshold was measured without administering the drug.
All measured values were indicated as an average±standard error. […] A significance level (P) less than 5% was determined as statistical significance (P<0.001 was indicated as ### in the drawing). […] A significance level (P) less than 5% was determined as statistical significance (P<0.001 was indicated as *** in the drawing).

[2] = system: disease animal model of fibromyalgia; assay: Effect of test drug on lowering of muscle tenderness threshold induced by repeated reserpine administration; assay type: in vivo, Sprague-Dawley rats; conditions: for effect on the lowering of the muscle tenderness threshold induced by reserpine: male rats; for statistical significance of the effect on muscle tenderness threshold vs vehicle: two way ANOVA and Bonferroni
Procedure: (§1) The muscle tenderness threshold was measured according to the method of Schafers et al (Schafers M et al, Pain, 104, 579-588, 2003). A pressure stimulus gradually increasing up to 250 g was applied to the gastrocnemius of the right rear foot of the rat. […] The measurement was performed for three times for each point in time, and the average thereof was taken as a measured value. The cutaneous nociception threshold was measured according to the method of Chaplan et al (Chaplan et al., J Neurosci Methods, 53, 55-63, 1994). The measurement was performed using a series of von Frey filaments differing in thickness, which made it possible to apply a constant pressure. The rats were adapted to a cage for measurement having a wire mesh bottom, and then von Frey filaments (0.42 g, 0.74 g, 1.2 g, 2.1 g, 3.5 g, 6.0 g, 9.3 g, and 15.8 g) were applied to the plantar surface of a right rear foot of the rat until the withdrawal response was caused in the right rear foot or until 6 seconds elapsed without the response. The von Frey filament was applied using an up and down method. That is, a filament having about a medium thickness was applied initially, and when the withdrawal response was observed, a filament having a thickness which is one level lower than the initial filament was applied, and when the response was not observed, a filament having a thickness which is one level higher than the initial filament was applied. The cutaneous nociception threshold at the respective points in time was calculated as a threshold (g) of a foot withdrawal response by using a calculation formula reported by Chaplan et al (Chaplan et al. described above). The influence of reserpine on the muscle tenderness threshold and the threshold of cutaneous nociception was examined according to the following protocol. 24 rats were used for male and female rats respectively. The muscle tenderness threshold and the cutaneous nociception threshold before the reserpine administration (base line) were measured, and then the rats were assigned to any of a vehicle (0.5% aqueous acetic acid) group, a 0.1 mg/kg reserpine group, a 0.3 mg/kg group, and a 1 mg/kg group based on the dose of reserpine (6 rats per group). A vehicle or reserpine was subcutaneously administered to the back of rats of the respective groups once a day for three days. The volume of the vehicle or reserpine was set to 1 ml per a weight of a rat of 1 kg for all groups. On the first, third, fifth, seventh, tenth, fourteenth, and twenty-first days after the final administration of the vehicle or reserpine, the muscle tenderness threshold and the cutaneous nociception threshold were measured for the respective rats.
Male Sprague-Dawley rats (Japan SLC, Hamamatsu, Japan) were used. Thirty rats were used for each drug. As shown in Reference Example 1, reserpine was repeatedly administered at 1 mg/kg once a day for 3 days for 24 rats, thereby causing the lowering of the muscle tenderness threshold and the cutaneous nociception threshold. The other 6 rats were not administered with reserpine and provided for the experiment as a healthy control.
The drug efficacy was evaluated 5 days after the final administration of reserpine for all groups.
In evaluating the respective test drugs (5-HT2C receptor agonists), the muscle tenderness threshold of the rats (24 reserpine-administered rats and 6 healthy rats) before the administration of the test drug was initially measured. The 24 reserpine-administered rats were assigned to 4 groups according to the dose of the test drug. For YM348 or a vehicle thereof, the muscle tenderness threshold was measured 30, 60, and 120 minutes after the administration. For lorcaserin or a vehicle thereof, the muscle tenderness threshold was measured 60, 120, and 240 minutes after the administration. For vabicaserin or a vehicle thereof, the muscle tenderness threshold was measured 30, 60, 120, and 240 minutes after the administration. […]

[3] = system: disease animal model of fibromyalgia; assay: Effect of drug on reserpine-induced lowering of cutaneous nociception threshold; assay type: in vivo, Sprague-Dawley rats; conditions: 5 days after final reserpine; up to a dose of 10 mg/kg
Procedure: The cutaneous nociception threshold was measured according to the method of Chaplan et al (Chaplan et al., J Neurosci Methods, 53, 55-63, 1994). The measurement was performed using a series of von Frey filaments differing in thickness, which made it possible to apply a constant pressure. The rats were adapted to a cage for measurement having a wire mesh bottom, and then von Frey filaments (0.42 g, 0.74 g, 1.2 g, 2.1 g, 3.5 g, 6.0 g, 9.3 g, and 15.8 g) were applied to the plantar surface of a right rear foot of the rat until the withdrawal response was caused in the right rear foot or until 6 seconds elapsed without the response. The von Frey filament was applied using an up and down method. […] The cutaneous nociception threshold at the respective points in time was calculated as a threshold (g) of a foot withdrawal response by using a calculation formula reported by Chaplan et al (Chaplan et al. described above).
In addition, 5 days after the final administration of reserpine, the effect of diclofenac which is a non-steroidal anti-inflammatory drug on the reserpine-induced lowering of the muscle tenderness threshold and the lowering of cutaneous nociception threshold was measured.

[4] = system: patients with fibromyalgia; conditions: cited from earlier work; for score of pain symptoms of patients with fibromyalgia compared to a placebo group: Non-Patent Documents 7 to 9; for effectiveness for treating patients with fibromyalgia: literature (Yunus 1989; Goldenberg 1986)
[5] = system: Male and female Sprague-Dawley rats; assay: Influence of repeated reserpine administration on muscle tenderness threshold; assay type: in vivo; conditions: for time after final administration for which muscle tenderness threshold was statistically significantly lower than vehicle: 1 mg/kg group
Procedure: (§2) Male and female Sprague-Dawley rats (Japan SLC, Hamamatsu, Japan) were used.
as §1, with “The influence of reserpine on the muscle tenderness threshold and the threshold of cutaneous nociception was examined according to the following protocol. 24 rats were used for male and female rats respectively.” left out, “A vehicle or reserpine was subcutaneously administered to the back of rats of the respective groups once a day for three days. The volume of the vehicle or reserpine was set to 1 ml per a weight of a rat of 1 kg for all groups.” left out
(§3) All measured values were indicated as an average±standard error. The statistical significant difference in the measured value at the respective points in time between the reserpine-administered group and the vehicle-administered group was verified by two way ANOVA and a Bonferroni method. A significance level (P) less than 5% was determined as statistical significance (P<0.05 was indicated as * in the drawings).

Male Sprague-Dawley rats = assay: Forced swimming test after repeated reserpine administration (immobility time); assay type: in vivo; conditions: 1 mg/kg s.c. once a day for 3 days
Procedure: Male Sprague-Dawley rats (7-week old, Japan SLC, Hamamatsu, Japan) were used as animals. A forced swimming test was performed by modifying the method of Porsolt (1977) et al in the following manner. Soft wires including a magnet (a diameter of 1 mm and a length of 3 mm) were mounted on both the forelimbs of the animal, and the animals were caused to swim one by one in a cylindrical plastic water tank (a diameter of 20 cm and a height of 45 cm) filled with water (24±1° C.) up to 30 cm depth. […] Each forced swimming test includes a pretest session (15 minutes of swimming) and a test session (5 minutes of swimming) 24 hours after the pretest session, and the immobility time was measured in the test session. […] All of the measured values were indicated as an average±standard error. The statistical significant difference in the measured value at the respective test schedules between the reserpine-administered group and the vehicle-administered group was verified by a Student's t-test. A significance level (P) less than 5% was determined as statistical significance (P<0.05 was indicated as * in the drawings).

[6] = system: Male and female Sprague-Dawley rats; assay: Influence of repeated reserpine administration on cutaneous nociception threshold (von Frey); assay type: in vivo; conditions: for time after final administration for which cutaneous nociception threshold was statistically significantly lower than vehicle: 1 mg/kg group
Procedure: as §2
as §1, with “The influence of reserpine on the muscle tenderness threshold and the threshold of cutaneous nociception was examined according to the following protocol. 24 rats were used for male and female rats respectively.” left out, “A vehicle or reserpine was subcutaneously administered to the back of rats of the respective groups once a day for three days. The volume of the vehicle or reserpine was set to 1 ml per a weight of a rat of 1 kg for all groups.” left out
as §3

[7] = 0.1, 0.3, 1 mg/kg s.c. once a day for three days, male and female rats, two way ANOVA

Cc1cc2c(cc1Cl)N(C(=O)Nc1ccc(Oc3cccnc3C)nc1)CC2 [SB242084]
antagonistic action against the action of lorcaserin on muscle tenderness threshold ([1]; SB242084 0.1 and 1 mg/kg i.p. 15 min before lorcaserin 3 mg/kg oral, 60 min, Dunnett's test): statistically significant antagonistic action in a dose dependent manner

CCc1cc2c(ccc3cnn(C[C@H](C)N)c32)o1 [YM348, (S)-2-(7-ethyl-1H-furo[2,3-g]indazol-1-yl)-1-methylethylamine]
effect on the lowering of the muscle tenderness threshold induced by reserpine ([2]; 5 days after final reserpine (1 mg/kg s.c. x3 days), oral 0.03, 0.1, 0.3 mg/kg, 30, 60, 120 min after administration): restored the lowering of the muscle tenderness threshold induced by reserpine in a dose dependent manner
statistical significance of the effect on muscle tenderness threshold vs vehicle ([2]; oral, at a dose of 0.1 mg/kg or 0.3 mg/kg): statistically significant

O=C(O)Cc1ccccc1Nc1c(Cl)cccc1Cl [diclofenac]
effect on the reserpine-induced lowering of the muscle tenderness threshold ([2]; 5 days after final reserpine, up to a dose of 10 mg/kg): not restored
effect on the reserpine-induced lowering of cutaneous nociception threshold [3]: not restored

CNCC[C@H](Oc1cccc2ccccc12)c1cccs1 [duloxetine]
score of pain symptoms of patients with fibromyalgia compared to a placebo group [4]: statistically significantly reduces the score of pain symptoms

CC(C)Cc1ccc(C(C)C(=O)O)cc1 (stereo not drawn) [ibuprofen]
effectiveness for treating patients with fibromyalgia [4]: not significantly effective

C[C@H]1CNCCc2ccc(Cl)cc21.Cl [lorcaserin, (1R)-8-chloro-1-methyl-2,3,4,5-tetrahydro-1H-3-benzazepine]
effect on the lowering of the muscle tenderness threshold induced by reserpine ([2]; 5 days after final reserpine, oral 0.3, 1, 3 mg/kg, 60, 120, 240 min after administration): restored the lowering of the muscle tenderness threshold induced by reserpine in a dose dependent manner
statistical significance of the effect on muscle tenderness threshold vs vehicle ([2]; oral, at a dose of 1 mg/kg or 3 mg/kg): statistically significant
effect on the lowering of the muscle tenderness threshold induced by reserpine vs vehicle group (v+v) ([1]; lorcaserin 3 mg/kg oral + 10% β cyclodextrin i.p., 60 min after administration, Student's t-test): statistically significantly restored the lowering of the muscle tenderness threshold induced by reserpine

COc1ccc2cc([C@H](C)C(=O)O)ccc2c1 [naproxen]
effectiveness for treating patients with fibromyalgia [4]: not significantly effective

CC(C)C[C@H](CN)CC(=O)O [pregabalin]
score of pain symptoms of patients with fibromyalgia compared to a placebo group [4]: statistically significantly reduces the score of pain symptoms

COC(=O)[C@H]1[C@H]2C[C@@H]3c4[nH]c5cc(OC)ccc5c4CCN3C[C@H]2C[C@@H](OC(=O)c2cc(OC)c(OC)c(OC)c2)[C@@H]1OC [reserpine]
time after final administration for which muscle tenderness threshold was statistically significantly lower than vehicle ([5]; female rats): 7 days
time after final administration for which muscle tenderness threshold was statistically significantly lower than vehicle ([5]; male rats): 10 days
influence on muscle tenderness threshold ([5]; 1 mg/kg reserpine group): markedly lowered
influence on muscle tenderness threshold [5, 7]: significantly lowered the muscle tenderness threshold
increase in the immobility time in forced swimming test (Male Sprague-Dawley rats; first day after final administration (P=0.625)): not confirmed
increase in the immobility time in forced swimming test (Male Sprague-Dawley rats; third, fifth, seventh and fourteenth days after final administration (P=0.0007, 0.004, <0.0001, 0.0008)): significant increase in the immobility time
time after final administration for which cutaneous nociception threshold was statistically significantly lower than vehicle ([6]; female rats): 14 days
time after final administration for which cutaneous nociception threshold was statistically significantly lower than vehicle ([6]; male rats): 21 days
influence on cutaneous nociception threshold ([6]; 1 mg/kg reserpine group): markedly lowered
influence on cutaneous nociception threshold [6, 7]: significantly lowered the cutaneous nociception threshold

Cl.c1cc2c3c(c1)[C@H]1CCC[C@H]1CN3CCNC2 [vabicaserin, (−)-(9aR,12aS)-4,5,6,7,9,9a,10,11,12,12a-decahydrocyclopenta[c][1,4]diazepino[6,7,1-ij]quinoline]
statistical significance of the effect on muscle tenderness threshold vs vehicle ([2]; dorsal subcutaneous, at a dose of 1 mg/kg or 3 mg/kg): statistically significant
effect on the lowering of the muscle tenderness threshold induced by reserpine ([2]; 5 days after final reserpine, dorsal subcutaneous 0.3, 1, 3 mg/kg, 30, 60, 120, 240 min after administration): restored the lowering of the muscle tenderness threshold induced by reserpine in a dose dependent manner
